Experimental data as given in patent publication US5397781A, “Pyrimidine derivatives” (Mochida Pharmaceutical Company, Limited, priority 1992, dated 1995).
Like-named read-outs stand apart in the source and are kept apart here.

Assays:
macrophages = test: Inhibitory effect on cholesteryl ester accumulation in macrophages; assay type: cell-based, mouse (ddy-family male mice); settings: Macrophage, read-out: Inhibition activity on cholesteryl ester accumulation (IC50 grade)
Method: Inhibitory effect on cholesteryl ester accumulation in macrophages.
Namely resident peritoneal cells suspended in phosphate-buffered saline (PBS) were plated in plastic Petri dishes (35 mm×10 mm) at a density of 2×10^6 cells. The adherent macrophages were cultured overnight at 37° C. in Dalbecco's modified Eagle medium (DME) containing 10% fetal bovine serum (FCS) under humidified 5% CO2. […] After discarding the medium, each macrophage monolayer was washed with PBS and lipids were extracted with hexane/isopropyl alcohol (3:2). Cholesteryl esters in the extract were separated by thin-layer chromatography and the radioactivity was measured by liquid scintillation counter.

serum total cholesterol = test: Hypocholesterolemic effect on cholesterol feeding rats; assay type: in vivo, male Wistar rats; settings: Rattus norvegicus, oral, high cholesterol diet rats, read-out: % reduction of serum total cholesterol; for inhibition in vivo at 30 mg/kg: 30 mg/kg/day; for inhibition in vivo at 10 mg/kg: 10 mg/kg/day
Method: Hypocholesterolemic effect on cholesterol feeding rats. Male Wistar rats aged 7 weeks old were fed a diet (CE®) supplemented with 2%(w/w) cholesterol, 0.5%(w/w) sodium cholate, 10%(w/w) lard, 0.2%(w/w) propylthiouracyl and 5%(w/w) sucrose, for 3 days. Following 3 days, the compounds of the present invention were administered orally, and the animals were maintained with the high cholesterol diet. On the next day of final drug administration, blood was drown and serum total cholesterol-levels were measured enzymatically by autoanalyzer. CL277082 was used as a reference compound.

ACAT = biological target: T1, ACAT (Rattus norvegicus, UniProt Q7TQM4); test: Inhibitory effect on microsomal ACAT activity in rat liver; assay type: biochemical; settings: rat liver microsomes; read-out: IC50 (50% inhibition of cholesterol esterification)
T1 construct: Liver microsomes as an enzyme sample of ACAT were prepared from overnight-fasted male rats; from tissue; host or cells: liver of overnight-fasted male rats, 6 weeks old; microsomes
T1 sequence (Q7TQM4 1-524): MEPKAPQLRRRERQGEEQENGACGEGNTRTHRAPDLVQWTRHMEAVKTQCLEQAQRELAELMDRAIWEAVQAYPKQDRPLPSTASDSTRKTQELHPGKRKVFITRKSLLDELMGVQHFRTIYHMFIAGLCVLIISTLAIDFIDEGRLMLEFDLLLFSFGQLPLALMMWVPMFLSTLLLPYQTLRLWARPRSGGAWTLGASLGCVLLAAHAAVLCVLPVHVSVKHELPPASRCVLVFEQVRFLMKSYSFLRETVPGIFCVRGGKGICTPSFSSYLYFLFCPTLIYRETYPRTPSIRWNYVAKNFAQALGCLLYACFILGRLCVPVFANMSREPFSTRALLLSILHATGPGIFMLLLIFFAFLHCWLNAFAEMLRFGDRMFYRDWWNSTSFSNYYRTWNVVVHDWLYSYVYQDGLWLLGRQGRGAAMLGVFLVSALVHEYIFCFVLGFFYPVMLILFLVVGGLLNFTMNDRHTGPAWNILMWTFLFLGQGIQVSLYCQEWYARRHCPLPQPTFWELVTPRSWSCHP

male Wistar rats = test: Acute toxicity; assay type: in vivo; settings: single oral dose 1 g/kg, 7 days observation
Excerpt: The pyrimidine derivatives of the present invention were examined for acute toxicity by using male Wistar rats fasted over night aged 7 weeks old.

[1] = mouse peritoneal macrophages, β-VLDL, [3H]oleic acid, 3 hrs

SMILES	IC50 (ACAT)	IC50 (macrophages; [1])	also measured
CCCCCCCN(Cc1ccc(CC(C)(C)C)cc1)C(=O)Nc1ccc(F)cc1F [CL277082, (N'-2,4-difluorophenyl)-N-[[4-(2,2-dimethylpropyl)phenyl]methyl]-N-heptylurea, reference compound]			IC50 (macrophages; Mus musculus, 3 h): 1000 to 10000 nM; inhibition in vivo at 30 mg/kg (serum total cholesterol): 52%
CCCCCCCN(Cc1ccccc1)c1nc(C)nc(S)c1NC(=O)CCCN(CCC)c1ccccc1 [Example 148, N-[4-(N-benzyl-N-heptylamino)-6-mercapto-2-methylpyrimidin-5-yl]-4-(N-phenyl-N propylamino)butanamide]	55 nM	10 to 100 nM	
CCCN(CCCC(=O)Nc1c(S)ncnc1N(CCC)c1ccccc1)c1ccccc1 [Example 149, N-[4-mercapto-6-(N-phenyl-N-propylamino)pyrimidin-5-yl]-(N-phenyl-N-propylamino)butanamide]	140 nM		inhibition in vivo at 30 mg/kg (serum total cholesterol): 21%
CCCCN(CCCC)c1nc(C)nc(OCC)c1NC(=O)CCCCN(CCC)c1ccccc1 [Example 196, N-[4-(N,N-dibutylamino)-6-ethoxy-2-methylpyrimidin-5-yl]-5-(N-phenyl-N-propylamino)pentanamide]			lethal incident (acute toxicity) (male Wistar rats): no lethal incident was observed; inhibition in vivo at 10 mg/kg (serum total cholesterol): 48%
CCCN(CCC(=O)Nc1c(SC)nc(C)nc1N(CC)CC)c1ccccc1 [Example 216, N-[4-(N,N-diethylamino)-2-methyl-6-methylthiopyrimidin-5-yl]-3-(N-phenyl-N-propylamino)propionamide]	120 nM		inhibition in vivo at 100 mg/kg (serum total cholesterol; 100 mg/kg/day): 33%
CCCN(CCCC(=O)Nc1c(SC)nc(C)nc1N(C)C)c1ccccc1 [Example 219, N-[4-(N,N-dimethylamino)-2-methyl-6-methylthiopyrimidin-5-yl]-4-(N-phenyl-N-propylamino)butanamide]	130 nM	100 to 1000 nM	
CCCN(CCCC(=O)Nc1c(SC)nc(C)nc1N(CC)CC)c1ccccc1 [Example 220, N-[4-(N,N-diethylamino)-2-methyl-6-methylthiopyrimidin-5-yl]-4-(N-phenyl-N-propylamino)butanamide]	52 nM	100 to 1000 nM	inhibition in vivo at 30 mg/kg (serum total cholesterol): 23%
CCCCN(CCCC)c1nc(C)nc(SC)c1NC(=O)CCCN(CCC)c1ccccc1 [Example 221, N-[4-(N,N-dibutylamino)-2-methyl-6-methylthiopyrimidin-5-yl]-4-(N-phenyl-N-propylamino)butanamide]	29 nM	10 to 100 nM	
CCCCCCCN(Cc1ccccc1)c1nc(C)nc(SC)c1NC(=O)CCCN(CCC)c1ccccc1 [Example 223, N-[4-(N-benzyl-N-heptylamino)-2-methyl-6-methylthiopyrimidin-5-yl]-4-(N-phenyl-N-propylamino)butanamide]	64 nM	10 to 100 nM	inhibition in vivo at 10 mg/kg (serum total cholesterol): 70%
CCCCCCN(CCCC(=O)Nc1c(SC)nc(C)nc1N(CC)CC)c1ccccc1 [Example 225, N-[4-(N,N-diethylamino)-2-methyl-6-methylthiopyrimidin-5-yl]-4-(N-hexyl-N-phenylamino)butanamide]	19 nM	10 to 100 nM	inhibition in vivo at 10 mg/kg (serum total cholesterol): 64%
CCCCCCN(CCCC(=O)Nc1c(SC)nc(C)nc1N1CCOCC1)c1ccccc1 [Example 231, N-[2-methyl-4-methylthio-6-morpholinopyrimidin-5-yl]-4-(N-hexyl-N-phenylamino)butanamide]			lethal incident (acute toxicity) (male Wistar rats): no lethal incident was observed
CCCN(CCCC(=O)Nc1c(SC)nc(C)nc1N(CC)CC)c1ccc(OC)cc1 [Example 238, N-[4-(N,N-diethylamino)-2-methyl-6-methylthiopyrimidin-5-yl]-4-[N-(4-methoxyphenyl)-N-propylamino)butanamide]	110 nM	100 to 1000 nM	inhibition in vivo at 10 mg/kg (serum total cholesterol): 65%
CCCCCCN(CCCC(=O)Nc1c(SC)nc(C)nc1N(CC)CC)c1ccccc1OC [Example 240, N-[4-(N,N-diethylamino)-2-methyl-6-methylthiopyrimidin-5-yl]-4-[N-hexyl-N-(2-methoxyphenyl)amino]butanamide]	73 nM		lethal incident (acute toxicity) (male Wistar rats): no lethal incident was observed
CCCCCCCN(Cc1ccccc1)c1nc(C)nc(SC)c1NC(=O)CCCCN(CCC)c1ccccc1 [Example 249, N-[4-(N-benzyl-N-heptylamino)-2-methyl-6-methylthiopyrimidin-5-yl]-5-(N-phenyl-N-propylamino)pentanamide]	160 nM	100 to 1000 nM	
CCCCN(CCCC)c1ncnc(SC)c1NC(=O)CCCCN(CCC)c1ccccc1 [Example 250, N-[4-(N,N-dibutylamino)-6-methylthiopyrimidin-5-yl]-5-(N-phenyl-N-propylamino)pentanamide]	9.6 nM		
CCCCCCN(CCCCC(=O)Nc1c(SC)nc(C)nc1N(CC)CC)c1ccccc1 [Example 252, N-[4-(N,N-diethylamino)-2-methyl-6-methylthiopyrimidin-5-yl]-5-(N-hexyl-N-phenylamino)pentanamide]	33 nM		
CCCSc1nc(C)nc(N(CCC)c2ccccc2)c1NC(=O)CCCN(CCC)c1ccccc1 [Example 256, N-[2-methyl-4-(N-phenyl-N-propylamino)-6-propylthiopyrimidin-5-yl]-4-(N-phenyl-N-propylamino)butanamide]	100 nM		
CCCCCCSc1nc(C)nc(N(CCC)c2ccccc2)c1NC(=O)CCCN(CCC)c1ccccc1 [Example 257, N-[4-hexylthio-2-methyl-6-(N-phenyl-N-propylamino)pyrimidin-5-yl]-4-(N-phenyl-N-propylamino)butanamide]	220 nM		
CCCN(CCCC(=O)Nc1c(SCc2ccccc2)nc(C)nc1N(CCC)c1ccccc1)c1ccccc1 [Example 258, N-[4-benzylthio-2-methyl-6-(N-phenyl-N-propylamino)pyrimidin-5-yl]-4-(N-phenyl-N-propylamino)butanamide]	230 nM		
CCCN(CCCC(=O)Nc1c(SCc2ccccc2)nc(C)nc1N(CC)CC)c1ccccc1 [Example 259, N-[4-benzylthio-6-(N,N-dietylamino)-2-methylpyrimidin-5-yl]-4-(N-phenyl-N-propylamino)butanamide]	76 nM		
CCCCCCN(CCCC(=O)Nc1c(SCCC)nc(C)nc1N(CC)CC)c1ccccc1 [Example 261, N-[4-(N,N-dietylamino)-2-methyl-6-propylthiopyrimidin-5-yl]-4-(N-hexyl-N-phenylamino)butanamide]	23 nM		
CCCN(CCCC(=O)Nc1c(OCc2ccccc2)nc(C)nc1C(C)C)c1ccccc1 [Example 263, N-(4-benzyloxy-6-isopropyl-2-methylpyrimidin-5-yl)-4-(N-phenyl-N-propylamino)butanamide]	100 nM		
CCCN(CCCC(=O)Nc1c(C(C)C)nc(C)nc1N(CC)CC)c1ccccc1 [Example 266, N-[4-(N,N-diethylamino)-6-isopropyl-2-methylpyrimidin-5-yl]-4-(N-phenyl-N-propylamino)butanamide]	170 nM		
CCCN(CCCC(=O)Nc1c(SC)nc(C)nc1C(C)C)c1ccccc1 [Example 268, N-(4-isopropyl-2-methyl-6-methylthiopyrimidin-5-yl)-4-(N-phenyl-N-propylamino)butanamide]	56 nM		
CCCCCCN(CCCC(=O)Nc1c(SC)nc(C)nc1N(CC)CC)c1ccc(Br)cc1 [Example 272, 4-[N-(4-bromophenyl)-N-hexylamino]-N-[4-(N,N-diethylamino)-2-methyl-6-methylthiopyrimidin-5yl]butanamide]	37 nM		
